ChEMBL document CHEMBL1201862, “PubChem BioAssay data set” (2004)
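In this assay, cells in 96-well plates receive the compound at five concentrations for 48 hours. Endpoints are linearly interpolated between the surrounding concentrations. GI50 is the concentration that inhibits growth by half.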 Activity calls are given as the source filed them. No stated cut-off is given here; in the data, active = GI50 up to about 1.1 µM and inactive = higher.

Tests used:
Assay in all cases: NCI tumour cell line growth inhibition, 48 h
OVCAR-5 = system: OVCAR-5
LOX IMVI = system: LOX IMVI
TK-10 = system: TK-10
U-251 = system: U-251
KM12 = system: KM12
SF-539 = system: SF-539
RPMI-8226 = system: RPMI-8226
M14 = system: M14
Malme-3M = system: Malme-3M
SK-MEL-28 = system: SK-MEL-28
SR = system: SR
CAKI-1 = system: CAKI-1
COLO 205 = system: COLO 205
HCC 2998 = system: HCC 2998
OVCAR-3 = system: OVCAR-3
HCT-116 = system: HCT-116
OVCAR-4 = system: OVCAR-4

| SMILES | GI50 (OVCAR-5) | GI50 (LOX IMVI) | GI50 (TK-10) | GI50 (U-251) | GI50 (KM12) | GI50 (SF-539) | GI50 (RPMI-8226) | GI50 (M14) | GI50 (Malme-3M) | GI50 (SK-MEL-28) | GI50 (SR) | GI50 (CAKI-1) | GI50 (COLO 205) | GI50 (HCC 2998) | GI50 (OVCAR-3) | GI50 (HCT-116) | GI50 (OVCAR-4) |
| --- | --- | --- | --- | --- | --- | --- | --- | --- | --- | --- | --- | --- | --- | --- | --- | --- | --- |
| CC1(C)C=N[N+]2(C)C3C=CC(CC3)C12 (stereo not drawn) | > 100 µM (inactive) | > 100 µM (inactive) | > 100 µM (inactive) | > 100 µM (inactive) | > 100 µM (inactive) | > 100 µM (inactive) | > 100 µM (inactive) | > 100 µM (inactive) | > 100 µM (inactive) | > 100 µM (inactive) | > 100 µM (inactive) | > 100 µM (inactive) | > 100 µM (inactive) | > 100 µM (inactive) | > 100 µM (inactive) | > 100 µM (inactive) |  |
| CC(=O)/C(=C\c1cccc([N+](=O)[O-])c1)C(=O)Nc1ccccc1C | > 100 µM (inactive) | 60.1 µM (inactive) | > 100 µM (inactive) | 91.2 µM (inactive) | > 100 µM (inactive) | > 100 µM (inactive) | 42.8 µM (inactive) | 95.7 µM (inactive) | > 100 µM (inactive) | > 100 µM (inactive) | 33.6 µM (inactive) | > 100 µM (inactive) |  | 75.5 µM (inactive) | > 100 µM (inactive) | 57.3 µM (inactive) | 56.4 µM (inactive) |
| O=C1CCC[C@]2(CCCC(=O)N2)C1 | > 100 µM (inactive) | > 100 µM (inactive) | > 100 µM (inactive) | > 100 µM (inactive) | > 100 µM (inactive) | > 100 µM (inactive) | > 100 µM (inactive) | > 100 µM (inactive) | > 100 µM (inactive) | > 100 µM (inactive) | > 100 µM (inactive) | > 100 µM (inactive) | > 100 µM (inactive) | > 100 µM (inactive) | > 100 µM (inactive) | > 100 µM (inactive) | > 100 µM (inactive) |
| O=C(O)CNc1cc(-c2ccccc2)nc(NCC(=O)O)n1 | > 100 µM (inactive) | > 100 µM (inactive) | > 100 µM (inactive) | > 100 µM (inactive) | > 100 µM (inactive) | > 100 µM (inactive) | > 100 µM (inactive) | > 100 µM (inactive) | > 100 µM (inactive) | 49.5 µM (inactive) | > 100 µM (inactive) | > 100 µM (inactive) | > 100 µM (inactive) | > 100 µM (inactive) | > 100 µM (inactive) | > 100 µM (inactive) | > 100 µM (inactive) |
| Cc1ccc(-c2cc(-c3ccco3)c(C#N)c(=O)n2C2OC(OC(=O)c3ccccc3)C(OC(=O)c3ccccc3)C2OC(=O)c2ccccc2)cc1 (stereo not drawn) | > 100 µM (inactive) | > 100 µM (inactive) | 96.2 µM (inactive) | 0.925 µM (active) | > 100 µM (inactive) | > 100 µM (inactive) | > 100 µM (inactive) | 64.4 µM (inactive) | > 100 µM (inactive) | > 100 µM (inactive) | > 100 µM (inactive) | > 100 µM (inactive) | > 10 µM (inactive) | > 100 µM (inactive) | 39.2 µM (inactive) | 32.1 µM (inactive) |  |
| C=CCC(C(=O)OC)C1(C(=O)OC)c2[nH]c3ccccc3c2CCN1Cc1ccccc1 (stereo not drawn) | > 100 µM (inactive) |  | > 100 µM (inactive) | 64.4 µM (inactive) | > 100 µM (inactive) | > 100 µM (inactive) | > 100 µM (inactive) | 82.4 µM (inactive) | 51.8 µM (inactive) | > 100 µM (inactive) | 6.68 µM (inactive) | 66.8 µM (inactive) | > 100 µM (inactive) | > 100 µM (inactive) | > 100 µM (inactive) | 69.5 µM (inactive) | 20.2 µM (inactive) |
